Activity calls are given as the source filed them. The rule behind the calls is not given here.
Experiments:
CD4+ve Th = experiment: Immunosuppressive activity in C57BL/6 mouse SMNCs-derived CD4+ T cells assessed as inhibition of concanavalinA-stimulated cell proliferation at 1 uM measured after 5 to 7 days by CFSE staining based FACScan flowcytometry; assay type: functional; conditions: time 5-7 day
[1] = Cytotoxicity against C57BL/6 mouse spleen mononuclear cells assessed as cell viability at 0.5 to 1 uM measured after 48 hrs by CCK-8 assay; assay type: cell-based; conditions: mononuclear cell line, dose 0.5-1 µM

| SMILES | Activity (CD4+ve Th) | Activity [1] |
| --- | --- | --- |
| C=C(CC[C@@H](C)[C@H]1CC[C@@H]2[C@]1(C)CC[C@@H](O)[C@@]2(O)CCc1cc(O)ccc1C)C(C)C | Active | Non-Toxic |
| Cc1ccc(O)cc1CC[C@]1(O)C(=O)CC[C@]2(C)[C@@H]([C@H](C)/C=C/[C@@H](C)C(C)C)C[C@@H](O)[C@H]21 | inactive | Non-Toxic |
| Cc1ccc(O)cc1CC[C@]1(O)[C@H](O)CC[C@]2(C)[C@@H]([C@H](C)CC[C@@H](C)C(C)C)CC[C@H]21 | Active | Non-Toxic |
| Cc1ccc(O)cc1CC[C@]1(O)[C@H](O)CC[C@]2(C)[C@@H]([C@H](C)CC[C@H](C)C(C)C)CC[C@H]21 | Active | Non-Toxic |
| Cc1ccc(O)cc1CC[C@@H]1[C@H](O)CC[C@]2(C)[C@@H]([C@H](C)/C=C/[C@@H](C)C(C)C)CC[C@@H]12 | Active | Non-Toxic |
| Cc1ccc(O)cc1CC[C@]1(O)[C@H](O)CC[C@]2(C)[C@@H]([C@H](C)/C=C/[C@@H](C)C(C)C)CC[C@H]21 | Active | Non-Toxic |
| C/C=C(/CC[C@@H](C)[C@H]1CC[C@@H]2[C@]1(C)CC[C@@H](O)[C@@]2(O)CCc1cc(O)ccc1C)C(C)C | inactive | Non-Toxic |
| C=C(CC[C@@H](C)[C@H]1CC[C@H]2[C@H](CCc3cc(O)ccc3C)[C@H](O)CC[C@]12C)C(C)C [CALICOFEROL C] | Active | Non-Toxic |
| Cc1ccc(O)cc1CC[C@]1(O)C(=O)CC[C@]2(C)[C@@H]([C@H](C)/C=C/CC(C)C)CC[C@H]21 | Active | Non-Toxic |
| Cc1ccc(O)cc1CC[C@@H]1[C@H](O)CC[C@]2(C)[C@@H]([C@H](C)CCCC(C)C)[C@@H](O)C[C@@H]12 [CALICOFEROL B] | Active | Non-Toxic |
| Cc1ccc(O)cc1CC[C@]1(O)[C@H](O)CC[C@]2(C)[C@@H]([C@H](C)CCCC(C)C)CC[C@H]21 | Active | Non-Toxic |
| CC(C)=CCC[C@@H](C)[C@H]1CC[C@H]2[C@H](CCc3cc(O)ccc3C)[C@H](O)CC[C@]12C [CALICOFEROL G] | Active | Non-Toxic |
| Cc1ccc(O)cc1CC[C@@H]1[C@H](O)CC[C@]2(C)[C@@H]([C@H](C)CCCC(C)C)CC[C@@H]12 [ASTROGORGIADIOL] | Active | Non-Toxic |
| Cc1ccc(O)cc1CC[C@]1(O)C(=O)CC[C@]2(C)[C@@H]([C@H](C)/C=C/[C@@H](C)C(C)C)CC[C@H]21 | Active | Non-Toxic |
| Cc1ccc(O)cc1CC[C@@H]1[C@H](O)CC[C@]2(C)[C@@H]([C@H](C)/C=C/CC(C)C)CC[C@@H]12 | Active | Non-Toxic |
| Cc1ccc(O)cc1CC[C@]1(O)[C@H](O)CC[C@]2(C)[C@@H]([C@H](C)/C=C/CC(C)C)CC[C@H]21 | Active | Non-Toxic |

Source: ChEMBL document CHEMBL4834442, “Immunosuppressive 9,10-Secosteroids from the Gorgonian Verrucella umbraculum Collected in the South China Sea” (J Nat Prod, 2021)
